Values joined by “and” are separate entries in the source; they are usually repeats but may differ in a detail not shown here. Equal values may be shown once. Inconclusive results and toxic doses are left out. No stated cut-off is given here; in the data, active means T/C of 150% or more; inactive means T/C below 125%.
Tested on: L1210 leukemia ip in BDF1 mice, survival T/C
Experiment: NCI In Vivo Anticancer Drug Screen. Data for tumor model L1210 Leukemia (intraperitoneal) in B6D2F1 (BDF1) mice
Details: endpoint: mean survival time, higher = longer survival
Method in brief: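 Tumor cells were implanted, animals were treated, and survival was followed. The result divides the treated measurement by the vehicle-control measurement.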

[1] = dose: 100.0 mg/kg/injection, schedule: Q04DX003 (ip), vehicle: Klucel (hydroxypropylcellulose) (HPC)
[2] = dose: 200.0 mg/kg/injection, schedule: Q04DX003 (ip), vehicle: Klucel (hydroxypropylcellulose) (HPC)
[3] = dose: 400.0 mg/kg/injection, schedule: Q04DX003 (ip), vehicle: Klucel (hydroxypropylcellulose) (HPC)
[4] = dose: 100.0 mg/kg/injection, schedule: Q04DX002 (ip), vehicle: Klucel (hydroxypropylcellulose) (HPC)
[5] = dose: 200.0 mg/kg/injection, schedule: Q04DX002 (ip), vehicle: Klucel (hydroxypropylcellulose) (HPC)
[6] = dose: 400.0 mg/kg/injection, schedule: Q04DX002 (ip), vehicle: Klucel (hydroxypropylcellulose) (HPC)
[7] = dose: 400.0 mg/kg/injection, schedule: Q04DX002 (ip), vehicle: saline with Tween-80
[8] = dose: 100.0 mg/kg/injection, schedule: Q01DX001 (ip), vehicle: saline with Tween-80
[9] = dose: 200.0 mg/kg/injection, schedule: Q01DX001 (ip), vehicle: saline with Tween-80
[10] = dose: 100.0 mg/kg/injection, schedule: Q01DX001 (ip), vehicle: Klucel (hydroxypropylcellulose) (HPC)
[11] = dose: 200.0 mg/kg/injection, schedule: Q01DX001 (ip), vehicle: Klucel (hydroxypropylcellulose) (HPC)

Measured: T/C

CC(c1ccccc1)c1ccc(O)cc1 (stereo not drawn)
inactive: dose: 100.0 mg/kg/injection, schedule: Q01DX009 (ip), vehicle: saline sonified 97 % of control | dose: 200.0 mg/kg/injection, schedule: Q01DX009 (ip), vehicle: saline sonified 95 % of control | dose: 400.0 mg/kg/injection, schedule: Q01DX009 (ip), vehicle: saline sonified 97 % of control

O=P1(CCc2ccccc2)CC(Br)C(Br)C1 (stereo not drawn)
inactive: [1] 101 % of control | [2] 106 % of control | [3] 98 % of control

NC(=S)N/N=C/c1cnccn1
inactive: dose: 13.0 mg/kg/injection, schedule: Q03HX032 (ip), vehicle: saline with Tween-80 98 % of control | dose: 20.0 mg/kg/injection, schedule: Q03HX032 (ip), vehicle: saline with Tween-80 101 % of control | dose: 29.0 mg/kg/injection, schedule: Q03HX032 (ip), vehicle: saline with Tween-80 113 % of control | dose: 44.0 mg/kg/injection, schedule: Q03HX032 (ip), vehicle: saline with Tween-80 115 % of control | dose: 200.0 mg/kg/injection, schedule: Q01DX009 (ip), vehicle: saline with Tween-80 86 % of control

Cc1ccc([N+](=O)[O-])cc1
inactive: [4] 103 % of control | [5] 103 % of control | [6] 95 % of control

Cc1ccc(NC(=O)Nc2ccccc2)cc1Cl
inactive: dose: 100.0 mg/kg/injection, schedule: Q01DX009 (sc), vehicle: olive oil, sesame oil, peanut oil 100 % of control | dose: 100.0 mg/kg/injection, schedule: Q04DX003 (sc), vehicle: olive oil, sesame oil, peanut oil 100 % of control | dose: 200.0 mg/kg/injection, schedule: Q01DX009 (sc), vehicle: olive oil, sesame oil, peanut oil 96 % of control | dose: 200.0 mg/kg/injection, schedule: Q04DX003 (sc), vehicle: olive oil, sesame oil, peanut oil 99 % of control | dose: 400.0 mg/kg/injection, schedule: Q01DX009 (sc), vehicle: olive oil, sesame oil, peanut oil 91 % of control | dose: 400.0 mg/kg/injection, schedule: Q04DX003 (sc), vehicle: olive oil, sesame oil, peanut oil 100 % of control

CCCCCCCCOC(=O)CCCCl
inactive: dose: 100.0 mg/kg/injection, schedule: Q04DX002 (ip), vehicle: saline with Tween-80 107 % of control | dose: 200.0 mg/kg/injection, schedule: Q04DX002 (ip), vehicle: saline with Tween-80 100 % of control | [7] 102 % of control

Cc1ccc(S(=O)(=O)F)cc1C(=O)O
inactive: dose: 100.0 mg/kg/injection, schedule: Q01DX001 (ip), vehicle: carboxymethylcellulose (CMC) 96 % of control and 106 % of control | dose: 100.0 mg/kg/injection, schedule: Q01DX009 (ip), vehicle: carboxymethylcellulose (CMC) 93 % of control and 102 % of control | dose: 100.0 mg/kg/injection, schedule: Q04DX002 (ip), vehicle: gum acacia 101 % of control and 111 % of control | dose: 100.0 mg/kg/injection, schedule: Q04DX003 (ip), vehicle: carboxymethylcellulose (CMC) 93 % of control and 98 % of control | dose: 200.0 mg/kg/injection, schedule: Q01DX001 (ip), vehicle: carboxymethylcellulose (CMC) 95 % of control and 100 % of control | dose: 200.0 mg/kg/injection, schedule: Q01DX009 (ip), vehicle: carboxymethylcellulose (CMC) 99 % of control and 100 % of control | dose: 200.0 mg/kg/injection, schedule: Q04DX002 (ip), vehicle: gum acacia 101 % of control and 104 % of control | dose: 200.0 mg/kg/injection, schedule: Q04DX003 (ip), vehicle: carboxymethylcellulose (CMC) 102 % of control | dose: 400.0 mg/kg/injection, schedule: Q04DX002 (ip), vehicle: gum acacia 107 % of control | dose: 400.0 mg/kg/injection, schedule: Q04DX003 (ip), vehicle: carboxymethylcellulose (CMC) 93 % of control

COC(=O)C1(COC(C)=O)CC1
inactive: dose: 50.0 mg/kg/injection, schedule: Q01DX001 (ip), vehicle: saline with Tween-80 103 % of control | [8] 97 % of control | [9] 103 % of control

COc1ccc(S(=O)Nc2ccccc2)cc1 (stereo not drawn)
inactive: dose: 25.6 mg/kg/injection, schedule: Q04DX002 (ip), vehicle: saline with Tween-80 108 % of control | dose: 64.0 mg/kg/injection, schedule: Q04DX002 (ip), vehicle: saline with Tween-80 115 % of control | dose: 160.0 mg/kg/injection, schedule: Q04DX002 (ip), vehicle: saline with Tween-80 101 % of control | [7] 112 % of control | dose: 400.0 mg/kg/injection, schedule: Q04DX003 (ip), vehicle: saline with Tween-80 95 % of control

COc1ccc(NC(=O)NC(C)(C)C)c(OC)c1
inactive: dose: 100.0 mg/kg/injection, schedule: Q01DX009 (ip), vehicle: Klucel (hydroxypropylcellulose) (HPC) 100 % of control | dose: 200.0 mg/kg/injection, schedule: Q01DX009 (ip), vehicle: Klucel (hydroxypropylcellulose) (HPC) 100 % of control | dose: 400.0 mg/kg/injection, schedule: Q01DX009 (ip), vehicle: Klucel (hydroxypropylcellulose) (HPC) 98 % of control

CCCC1(CCC)c2ccccc2C(=O)c2ccccc21
inactive: [10] 105 % of control | [1] 100 % of control | [11] 96 % of control | [2] 96 % of control | dose: 400.0 mg/kg/injection, schedule: Q01DX001 (ip), vehicle: Klucel (hydroxypropylcellulose) (HPC) 105 % of control | [3] 95 % of control

CC1CCC(C(=O)O)(C(=O)NC(N)=O)CC1C (stereo not drawn)
inactive: dose: 100.0 mg/kg/injection, schedule: Q01DX001 (ip), vehicle: steriod suspending solution 93 % of control | dose: 200.0 mg/kg/injection, schedule: Q01DX001 (ip), vehicle: steriod suspending solution 110 % of control | dose: 400.0 mg/kg/injection, schedule: Q01DX001 (ip), vehicle: steriod suspending solution 114 % of control

O=C1OC(=O)C2C1C13CCCC1=C1CCC34C(=O)OC(=O)C43CC123 (stereo not drawn)
inactive: dose: 6.25 mg/kg/injection, schedule: Q01DX009 (ip), vehicle: saline 111 % of control | dose: 12.5 mg/kg/injection, schedule: Q01DX001 (ip), vehicle: saline 115 % of control | dose: 12.5 mg/kg/injection, schedule: Q01DX009 (ip), vehicle: saline 109 % of control | dose: 12.5 mg/kg/injection, schedule: Q04DX003 (ip), vehicle: saline 106 % of control | dose: 25.0 mg/kg/injection, schedule: Q01DX001 (ip), vehicle: saline 107 % of control | dose: 25.0 mg/kg/injection, schedule: Q04DX003 (ip), vehicle: saline 104 % of control | dose: 50.0 mg/kg/injection, schedule: Q01DX001 (ip), vehicle: saline 109 % of control

CCN(C(=O)Nc1ccccc1F)c1cc(OC)ccc1C
inactive: dose: 50.0 mg/kg/injection, schedule: Q01DX009 (ip), vehicle: saline with Tween-80 91 % of control | dose: 100.0 mg/kg/injection, schedule: Q01DX009 (ip), vehicle: saline with Tween-80 86 % of control

Nc1nc2ncsc2c(=O)[nH]1
inactive: [8] 89 % of control | [9] 89 % of control | dose: 400.0 mg/kg/injection, schedule: Q01DX001 (ip), vehicle: saline with Tween-80 102 % of control

O=C(CNc1ccccc1)c1ccc(O)c(C(=O)O)c1 (tested in a mixture with another compound)
inactive: [1] 91 % of control | [2] 90 % of control | [3] 93 % of control

CC(C)N(C(=S)S)C(C)C
inactive: dose: 100.0 mg/kg/injection, schedule: Q01DX009 (ip), vehicle: saline 105 % of control | dose: 200.0 mg/kg/injection, schedule: Q01DX009 (ip), vehicle: saline 102 % of control | dose: 400.0 mg/kg/injection, schedule: Q01DX009 (ip), vehicle: saline 103 % of control

c1ccc(C2=NN(c3ccccc3)CC2)cc1
inactive: [4] 106 % of control | [5] 98 % of control | [6] 106 % of control

S=C(Nc1ccc(Cl)c(Cl)c1)Sc1ccccc1
inactive: dose: 50.0 mg/kg/injection, schedule: Q04DX003 (ip), vehicle: saline with Tween-80 95 % of control | dose: 100.0 mg/kg/injection, schedule: Q04DX003 (ip), vehicle: saline with Tween-80 91 % of control

CC(C)(/C=N/NC(N)=O)c1ccccc1
inactive: dose: 50.0 mg/kg/injection, schedule: Q01DX001 (ip), vehicle: Klucel (hydroxypropylcellulose) (HPC) 96 % of control | [10] 102 % of control | [11] 96 % of control

NC(N)=N/N=C/c1cccc([N+](=O)[O-])c1
inactive: dose: 15.0 mg/kg/injection, schedule: Q01DX Z (ip), vehicle: carboxymethylcellulose (CMC) 98 % of control | dose: 30.0 mg/kg/injection, schedule: Q01DX Z (ip), vehicle: carboxymethylcellulose (CMC) 93 % of control | dose: 60.0 mg/kg/injection, schedule: Q01DX Z (ip), vehicle: carboxymethylcellulose (CMC) 90 % of control

COC(=O)C1CC(C2c3ccccc3-c3ccccc32)CCC1N (stereo not drawn)
inactive: dose: 200.0 mg/kg/injection, schedule: Q04DX003 (ip), vehicle: saline with Tween-80 100 % of control

Reference: PubChem BioAssay AID248 (DTP/NCI, 2004)
